Measurements as given in US4839386A, “Ionic bis (Dicarboxylato) palladate (II)” (Engelhard Corporation, priority 1987, dated 1989).
Several values for one entry are separate records, joined by “and”; a condition that tells them apart may be missing. Equal values may be shown once. Read-outs that look alike come from different tables or passages of the source.

Experiments:
[1] = test system: testicular and ovarian tumors; conditions: background; cited from earlier work
S180 ascites = assay: Anti-Tumor Screening; S180 ascites in mice (% increase in life span, survivors); assay type: in vivo, female CFW Swiss mice; conditions: for Best % ILS (Dosage): Table 4
Procedure: The compounds used in this invention were evaluated against S180 ascites in female CFW Swiss mice. The mice were weighed (average weight: 20 g), placed into cages (six mice to a cage) and on day zero the mice were inoculated with 0.2 ml of a freshly prepared saline suspension (0.15M NaC1) containing 1×10^7 tumor cells/ml or a total of 2×10^6 cells. This inoculum was freshly prepared using "transfer" mice which had been injected with tumor cells the previous week; it was obtained via the following steps (1) the removal of cells from the peritoneal cavity of the sacrificed transfer mouse, (2) alternate centrifugation and washing operations (2-3 times with cold saline) to remove blood and other components, and (3) dilution of the volume of the packed cell with saline (1:3). A final centrifugation was carried out at 1000 RPM over a two minute period. A cell count was made on a 2000-fold dilution of this 1:3 suspension by means of a Coulter Counter. A final dilution to 1×10^7 cells/ml was made based on the average count.
On day 1, solutions of the test compounds were prepared and each mouse in a set of six was injected with the same test compound at the same dosage. The doses were based on the average weight of the animals (cage weight). Also, beginning on day 1 two controls were employed containing six mice per control:
(1) Normal Control: This consisted solely of the carrier or diluent used in combination with the test compound; and
(2) Positive Control: This consisted solely of the known anti-tumor agent cis-[Pt(NH3)2 C12 ] in saline (8 mg/kg) to test the response of the biological system.
The effectiveness of a test compound was measured in terms of the % increase in life span (% ILS) of the test mice relative to the Normal Control (Calculated from the day of tumor inoculation, i.e., day zero). To standardize the test data and permit intercomparisons, the day of evaluation was arbitrarily taken as that day corresponding to twice the mean life span (or average day of death) of the control. This established a practical upper limit of 100% on the % ILS attainable. For calculation purposes the survivors on the day of evaluation were considered to have died on that day. The % ILS was calculated as follows:
% ILS=mean-life span of test mice/mean-life span of control
ILS values in excess of 50% were interpreted as being indicative of anti-tumor cell activity in animals whereas, values in excess of 75% indicated excellent activity.
The test compounds were evaluated in water.

S 180 Ascites = assay: effective dose (ED90) and therapeutic index, S 180 ascites, method of Miller and Taiter; assay type: in vivo, mice; design: ED90: unit not given here; conditions: for Therapeutic Index: LD50/ED90; for ED90: dose which causes a 50% increase in life span in 90% of the test animals, determined graphically
Procedure: The effective dose (ED90), lethal dose (LD50) and therapeutic index (TI) were determined via the method of Miller and Taiter (Reported by R. A. Turner, "Screening Methods in Pharmacology", Academic Press, New York, pages 61-62 (1965)).
In this study Ed90 represents the dose which causes a 50% increase in life span (ILS) in 90% of the test animals (mice) determined graphically. The LD50 value represents the lethal dose to 50% of said animals (Therapeutic Index=LD50 /Ed90).

[2] = solubility in water at room temperature

Compound	Therapeutic Index (S 180 Ascites)	ED90 (S 180 Ascites)	% ILS (S180 ascites; 50 mg/kg) [%]	Survivors (S180 ascites; 50 mg/kg)	% ILS (S180 ascites; 100 mg/kg) [%]	Survivors (S180 ascites; 100 mg/kg)	% ILS (S180 ascites; 200 mg/kg) [%]	Survivors (S180 ascites; 200 mg/kg)	% ILS (S180 ascites; 10 mg/kg)	Survivors (S180 ascites; 10 mg/kg)	% ILS (S180 ascites; 20 mg/kg)	Survivors (S180 ascites; 20 mg/kg)	% ILS (S180 ascites; 40 mg/kg) [%]	Survivors (S180 ascites; 40 mg/kg)	% ILS (S180 ascites; 80 mg/kg)	Survivors (S180 ascites; 80 mg/kg)	% ILS (S180 ascites; 160 mg/kg)	Survivors (S180 ascites; 160 mg/kg)	Best % ILS (Dosage) (S180 ascites; 160 mg/kg)	% ILS (S180 ascites; 320 mg/kg) [%]	also measured
cis-[Pt(NH3)2 -Cl2 ] [Positive Control, reference compound]																					regression of testicular and ovarian tumors (in words) [1]: singularly successful in bringing about a regression of testicular and ovarian tumors; Positive Control Survivors (S180 ascites; 8 mg/kg in saline): 0 of 6 and 1 of 6 and 2 of 6 and 4 of 6
O=C([O-])c1ccccc1C(=O)[O-].O=C([O-])c1ccccc1C(=O)[O-].[K+].[K+].[Pd+2] [Example 5, Potassium Bis(phthalato)palladate(II)]	2.3	220	18	0 of 6	38	1 of 6	79	2 of 6													Best % ILS (Dosage) (S180 ascites; 200 mg/kg): 79%; % ILS (S180 ascites; 400 mg/kg): 25%; Survivors (S180 ascites; 400 mg/kg): 0 of 6; solubility in water [2]: 80 mg/mL
O=C([O-])C1(C(=O)[O-])CCC1.O=C([O-])C1(C(=O)[O-])CCC1.[K+].[K+].[Pd+2] [Example 6, Potassium Bis(Cyclobutanedicarboxylato)palladate(II)]	1.1	210							-4%	0 of 6	9%	0 of 6	7	0 of 6	-7%	0 of 6	50%	0 of 6	50%	-75	solubility in water: 200 mg/mL; Survivors (S180 ascites; 320 mg/kg): 0 of 6
O=C([O-])CC(=O)[O-].O=C([O-])CC(=O)[O-].[K+].[K+].[Pd+2] [K2 [Pd(Malonate)2]]		120							6% and 8%	0 of 6	-1% and 8%	0 of 6	-12	0 of 6	69% and 66%	3 of 6 and 2 of 6	82% and 86%	2 of 6 and 3 of 6	82% and 86%	-74	Survivors (S180 ascites; 320 mg/kg): 0 of 6
O=C([O-])C(=O)C(=O)[O-].O=C([O-])C(=O)C(=O)[O-].[K+].[K+].[Pd+2] [Example 2, Potassium Bis(Ketomalonato)palladate(II)]	2.0	200							4%	0 of 6	4%	0 of 6	4	0 of 6	13%	1 of 6	81%	5 of 6	81%	17	solubility in water: 6.7 mg/mL; Survivors (S180 ascites; 320 mg/kg): 0 of 6
CC(C(=O)[O-])C(=O)[O-].CC(C(=O)[O-])C(=O)[O-].[K+].[K+].[Pd+2] [Example 3, Potassium Bis(Methylmalonato)palladate(II)]	1.1	160	2	0 of 6	54	2 of 6	54	0 of 6													% ILS (S180 ascites; 6.25 mg/kg): 11%; Survivors (S180 ascites; 6.25 mg/kg): 0 of 6; % ILS (S180 ascites; 12.5 mg/kg): 2%; Survivors (S180 ascites; 12.5 mg/kg): 0 of 6; % ILS (S180 ascites; 25 mg/kg): -6%; Survivors (S180 ascites; 25 mg/kg): 0 of 6; Best % ILS (Dosage) (S180 ascites; 100 mg/kg): 54%; % ILS (S180 ascites; 400 mg/kg): -83%; Survivors (S180 ascites; 400 mg/kg): 0 of 6; solubility in water [2]: 21 mg/mL
O=C([O-])C(O)C(=O)[O-].O=C([O-])C(O)C(=O)[O-].[K+].[K+].[Pd+2] [Example 4, Potassium Bis(Tartronato)palladate(II)]	2.1	190	11	0 of 6	68	3 of 6	76	0 of 6													solubility in water: 2 mg/mL; % ILS (S180 ascites; 12.5 mg/kg): 1%; Survivors (S180 ascites; 12.5 mg/kg): 0 of 6; % ILS (S180 ascites; 25 mg/kg): 12%; Survivors (S180 ascites; 25 mg/kg): 0 of 6; Best % ILS (Dosage) (S180 ascites; 200 mg/kg): 76%; % ILS (S180 ascites; 400 mg/kg): 14%; Survivors (S180 ascites; 400 mg/kg): 3 of 6
O=C([O-])C(=O)[O-].O=C([O-])C(=O)[O-].[K+].[K+].[Pd+2] [K2 [Pd(Oxalate)2], reference compound]			-7	0 of 6	-9	1 of 6	-71	0 of 6													% ILS (S180 ascites; 12.5 mg/kg): 2%; Survivors (S180 ascites; 12.5 mg/kg): 0 of 6; % ILS (S180 ascites; 25 mg/kg): 33%; Survivors (S180 ascites; 25 mg/kg): 0 of 6
CCC(C(=O)[O-])C(=O)[O-].CCC(C(=O)[O-])C(=O)[O-].[K+].[K+].[Pd+2] [Example 1, Potassium Bis(Ethylmalonato)palladate(II)]	2.1	150							-3%	0 of 6		0 of 6		0 of 6		0 of 6			94%		% ILS (S180 ascites; 5 mg/kg): 6%; Survivors (S180 ascites; 5 mg/kg): 0 of 6; % ILS (S180 ascites; 160 mg/kg, listed as Ex. 1): 94% and 55%; Survivors (S180 ascites; 160 mg/kg, listed as Ex. 1): 5 of 6 and 1 of 6; Survivors (S180 ascites; 320 mg/kg, listed as Ex. 1): 0 of 6 and 1 of 6; solubility in water [2]: 70 mg/mL
CC(C)(C(=O)[O-])C(=O)[O-].CC(C)(C(=O)[O-])C(=O)[O-].[K+].[K+].[Pd+2] [Example 7, Potasium Bis(Dimethylmalonato)palladate(II)]		210							-15%	0 of 6	0%	0 of 6	-8	0 of 6	-11%	0 of 6	61%	1 of 6	61%	26	Survivors (S180 ascites; 320 mg/kg): 0 of 6
